Experimental data taken from publication PMC10349806 (Nature Communications, 2023).
Values joined by “and” are separate entries in the source; they are usually repeats but may differ in a detail not shown here. Equal entries are not always repeated.

Experiments:
PfCRT variant E232A = target: T1, PfCRT variant E232A (Plasmodium falciparum, UniProt Q9N623, A220S/E232A/I356T/K76T/M74I/N326S/N75E/Q271E/R371I); assay: CQ uptake assay, oocytes expressing E232A; assay type: cell-based
T1 sequence (Q9N623 1-424 M74I/N75E/K76T/A220S/E232A/Q271E/N326S/I356T/R371I): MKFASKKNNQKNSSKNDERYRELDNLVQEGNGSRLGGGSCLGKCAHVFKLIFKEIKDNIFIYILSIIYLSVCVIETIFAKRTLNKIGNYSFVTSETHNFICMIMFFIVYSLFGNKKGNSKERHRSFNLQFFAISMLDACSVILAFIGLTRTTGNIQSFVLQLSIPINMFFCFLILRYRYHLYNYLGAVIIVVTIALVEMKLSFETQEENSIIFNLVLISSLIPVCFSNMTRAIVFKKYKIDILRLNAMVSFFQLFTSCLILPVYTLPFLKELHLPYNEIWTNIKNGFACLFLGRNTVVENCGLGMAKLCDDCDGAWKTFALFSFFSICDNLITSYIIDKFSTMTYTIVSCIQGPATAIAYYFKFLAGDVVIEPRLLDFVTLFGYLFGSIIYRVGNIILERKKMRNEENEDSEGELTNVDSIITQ
Description: (§1) Site-directed mutagenesis of PfCRT^Dd2 was performed as described using the megaprimer method with overlap extension[21],[54]. The primer pairs used are listed in Supplementary Table 6. Please note that a codon-optimized and oocyte-adapted version of PfCRT^Dd2 was used[22] (Supplementary Fig. 16). The resulting DNA fragment was cloned into the SP64T expression vector and verified by sequencing.
(§2) Oocytes were obtained as described previously. Briefly, adult (>2 years old) female X. laevis frogs (NASCO) were anesthetized in a cooled solution of ethyl 3-amino benzoate methanesulfonate (0.1%, w/v), followed by a surgical removal of parts of the ovary. The ovary lobes were carefully dissected and small pieces of oocytes were incubated in Ca^2+-free ND96 buffer (96 mM NaCl, 2 mM KCl, 1 mM MgCl2 buffered with 5 mM HEPES/NaOH, pH 7.5) supplemented with collagenase D (0.1%, w/v; Roche), BSA (0.5%, w/v), and 9 mm Na2HPO4 at 18 °C for 14-16 h while gentle shaking. After incubation, the oocytes were carefully washed several times with ND96 buffer (96 mM NaCl, 2 mM KCl, 1.8 mM CaCl2, 1 mM MgCl2 buffered with 5 mM HEPES/NaOH, pH 7.5) supplemented with 100 mg l^−1 gentamycin). Defolliculated and healthy-looking stage V-VI oocytes were manually selected for RNA microinjection. The RNA was generated as following: The codon-optimized sequences of PfCRT variants were cloned into the pSP64T expression vector. After vector linearization using the restriction endonucleases BamHI or SalI (New England Biolabs), transcription was performed using the in vitro SP6 mMessage mMachine Kit (Ambion)[34]. The obtained RNA was kept at −80 °C and diluted with nuclease-free water to a concentration of 0.6 μg μl^−1. Precision-bore glass capillary tubes (3.5-inch glass capillaries; Drummond Scientific Co.) were pulled on a vertical puller (P-87 Flaming/Brown micropipette puller, Sutter Instrument Co.), graduated, and placed on a microinjector (Nanoject II Auto-Nanoliter Injector, Drummond Scientific Co.). 50 nl of nuclease-free water alone (control oocytes) or 50 nl of 0.6 μg μl^−1 RNA were injected under stereomicroscopic control. Injected oocytes were incubated for 46–72 h at 18 °C with twice-daily buffer changes before usage in experiments.
Drug uptake assays were performed as described previously[21],[22],[24],[34]. […] The direction of radio-labeled drug transport is here from the mostly acidic extracellular solution (pH 4.5 or 6.0, as indicated) into the oocyte cytosol (pH ∼ 7.2), which corresponds to the efflux of drug from the acidic digestive vacuole (pH 5.2) into the parasite cytoplasm (pH 7.2). The topology of PfCRT in the oolemma is such that both the N- and C-terminus face the extracellular milieu[3],[22]. In the parasite, the N- and C-terminus face the lumen of the digestive vacuole. […] For determination of the amount of drug uptake for each oocyte, the reaction medium was removed and the oocytes were washed three times with 2 ml of ice-cold ND96 buffer. Each oocyte was individually transferred to a scintillation vial containing 5% sodium dodecyl sulfate (200 μl) for lysis. […] Oocytes that were injected with water instead of RNA were analyzed in parallel, representing the uptake of a drug by diffusion and/or endogenous permeation pathways. […] The specific PfCRT-mediated uptake was determined by subtracting the corresponding background value measured in water-injected oocytes from that of PfCRT-expressing oocytes. […]

PfCRT variant E207W = assay: CQ uptake assay, oocytes expressing E207W; assay type: cell-based, Plasmodium falciparum
Description: as §1, §2
Drug uptake assays were performed as described previously[21],[22],[24],[34]. […] The direction of radio-labeled drug transport is here from the mostly acidic extracellular solution (pH 4.5 or 6.0, as indicated) into the oocyte cytosol (pH ∼ 7.2), which corresponds to the efflux of drug from the acidic digestive vacuole (pH 5.2) into the parasite cytoplasm (pH 7.2). The topology of PfCRT in the oolemma is such that both the N- and C-terminus face the extracellular milieu[3],[22]. In the parasite, the N- and C-terminus face the lumen of the digestive vacuole. […] For determination of the amount of drug uptake for each oocyte, the reaction medium was removed and the oocytes were washed three times with 2 ml of ice-cold ND96 buffer. Each oocyte was individually transferred to a scintillation vial containing 5% sodium dodecyl sulfate (200 μl) for lysis. […] Oocytes that were injected with water instead of RNA were analyzed in parallel, representing the uptake of a drug by diffusion and/or endogenous permeation pathways. The resulting value represents the “background“ level of drug accumulation in oocytes (in-depth discussion in[22]). The specific PfCRT-mediated uptake was determined by subtracting the corresponding background value measured in water-injected oocytes from that of PfCRT-expressing oocytes. In all cases, at least three separate experiments were performed on oocytes from different frogs (biological replicate), and for each condition in an experiment, measurements were made from 10 oocytes per treatment. For pH 5.5, 6.0, and 6.5, ND96 was buffered with 5 mM MES/Tris base.

[1] = E207W, 50 µM CQ, 1 h, mean ± SEM

Compound: CCN(CC)CCCC(C)Nc1ccnc2cc(Cl)ccc12 (centres unmarked) [CQ, chloroquine]
- Activity at pH 4.5 (PfCRT variant E232A; E232A, 50 µM CQ, 1 h, mean ± SEM): 1.07 ± 0.12 pmol h-1 oocyte-1
- R-value (PfCRT variant E232A; E232A, CQ transport at pH 4.5 / pH 6.0): 0.65 ± 0.06
- E232A transport activity pH 4.5 (PfCRT variant E232A; pH 4.5, single replicates, Fig 1d left): 1.05 pmol oocyte-1 h-1 and 1.32 pmol oocyte-1 h-1 and 1.01 pmol oocyte-1 h-1 and 0.62 pmol oocyte-1 h-1 and 1.37 pmol oocyte-1 h-1
- E232A R-value (PfCRT variant E232A; pH 4.5 vs pH 6.0, Fig 1d left): 0.65 and 0.81 and 0.48 and 0.80
- E232A transport activity pH 6.0 (PfCRT variant E232A; pH 6.0, single replicates, Fig 1d left): 1.62 pmol oocyte-1 h-1 and 1.63 pmol oocyte-1 h-1 and 2.09 pmol oocyte-1 h-1 and 1.28 pmol oocyte-1 h-1 and 1.71 pmol oocyte-1 h-1
- Activity at pH 4.5 (PfCRT variant E207W; [1]): 2.40 ± 0.17 pmol h-1 oocyte-1
- Activity at pH 6.0 (PfCRT variant E207W; [1]): 3.18 ± 0.35 pmol h-1 oocyte-1
- R-value (PfCRT variant E207W; E207W, CQ transport at pH 4.5 / pH 6.0): 0.78 ± 0.06
- E207W transport activity pH 4.5 (PfCRT variant E207W; pH 4.5, individual replicates, Fig 6b): 2.68 pmol oocyte-1 h-1 and 2.94 pmol oocyte-1 h-1 and 1.91 pmol oocyte-1 h-1 and 1.82 pmol oocyte-1 h-1 and 2.34 pmol oocyte-1 h-1
- E207W transport activity pH 6.0 (PfCRT variant E207W; pH 6.0, individual replicates, Fig 6b): 2.46 pmol oocyte-1 h-1 and 4.37 pmol oocyte-1 h-1 and 2.52 pmol oocyte-1 h-1 and 2.14 pmol oocyte-1 h-1 and 3.58 pmol oocyte-1 h-1 and 4.02 pmol oocyte-1 h-1
- E207W R-value (PfCRT variant E207W; ratio of activity pH 4.5 / pH 6.0): 0.67 and 0.76 and 0.85 and 0.65
